Measurements taken from ChEMBL document CHEMBL5252512, “Recent Progress in the Development of HIV-1 Protease Inhibitors for the Treatment of HIV/AIDS” (J Med Chem, 2016).
Where a SMILES comes first, the peptide text is derived from it. Bridges are numbered along the chain shown (N, C = ends). Roman numbers before positions name the chains, in order. [ ]: non-standard residue; d: D form. The star is where a group is joined. ξ: configuration not given here. C16 diacid = O=C(O)CCCCCCCCCCCCCCC(=O)*; Phe(4-NH2) = Nc1ccc(C[C@H](N)C(=O)O)cc1; Ile(3ξ) = CCC(C)[C@H](N)C(=O)O; NHPhenethyl = c1ccc(CCN*)cc1

How the values were obtained:
[1] = target: T1, Human immunodeficiency virus type 1 protease (Human immunodeficiency virus 1, UniProt Q72874); experiment: Binding affinity to HIV1 protease assessed as inhibition constant
[2] = target: T1, Human immunodeficiency virus type 1 protease; experiment: Binding affinity to wild-type HIV1 protease expressed in Escherichia coli by fluorometric assay
[3] = system: Human immunodeficiency virus 1; experiment: Antiviral activity against multidrug-resistant HIV1-TM infected in phytohemagglutinin-activated human PBMC cells assessed as inhibition of virus-induced cytopathic effect measured after 7 days by MTT assay; assay type: functional, organism-based; conditions: Human immunodeficiency virus 1, TM, 168 h
[4] = system: Human immunodeficiency virus 1; experiment: Ratio of EC50 for antiviral activity against HIV1-TM to EC50 for antiviral activity against wild type HIV1 ERS104pre; assay type: functional
[5] = system: Human immunodeficiency virus 1; experiment: Ratio of EC50 for antiviral activity against HIV1-C to EC50 for antiviral activity against wild type HIV1 ERS104pre; assay type: functional
[6] = system: Human immunodeficiency virus 1; experiment: Antiviral activity against darunavir-resistant HIV1 10P infected in phytohemagglutinin-activated human PBMC cells assessed as inhibition of virus-induced cytopathic effect measured after 7 days by MTT assay; assay type: functional, organism-based; conditions: Human immunodeficiency virus 1, 10P, 168 h
[7] = system: Human immunodeficiency virus 1; experiment: Antiviral activity against multidrug-resistant HIV1-G infected in phytohemagglutinin-activated human PBMC cells assessed as inhibition of virus-induced cytopathic effect measured after 7 days by MTT assay; assay type: functional, organism-based; conditions: Human immunodeficiency virus 1, G, 168 h
[8] = system: Human immunodeficiency virus 1; experiment: Ratio of EC50 for antiviral activity against HIV1-MM to EC50 for antiviral activity against wild type HIV1 ERS104pre; assay type: functional
[9] = system: Human immunodeficiency virus 1; experiment: Antiviral activity against multidrug-resistant HIV1-C infected in phytohemagglutinin-activated human PBMC cells assessed as inhibition of virus-induced cytopathic effect measured after 7 days by MTT assay; assay type: functional, organism-based; conditions: Human immunodeficiency virus 1, C, 168 h
[10] = system: Human immunodeficiency virus 1; experiment: Antiviral activity against multidrug-resistant HIV1-B infected in phytohemagglutinin-activated human PBMC cells assessed as inhibition of virus-induced cytopathic effect measured after 7 days by MTT assay; assay type: functional, organism-based; conditions: Human immunodeficiency virus 1, B, 168 h
[11] = system: Human immunodeficiency virus 1; experiment: Ratio of EC50 for antiviral activity against HIV1-JSL to EC50 for antiviral activity against wild type HIV1 ERS104pre; assay type: functional
[12] = system: Human immunodeficiency virus 1; experiment: Antiviral activity against multidrug-resistant HIV1-JSL infected in phytohemagglutinin-activated human PBMC cells assessed as inhibition of virus-induced cytopathic effect measured after 7 days by MTT assay; assay type: functional, organism-based; conditions: Human immunodeficiency virus 1, JSL, 168 h
[13] = system: Human immunodeficiency virus 1; experiment: Antiviral activity against wild type HIV1 ERS104pre infected in human PBMC cells assessed as inhibition of virus-induced cytopathic effect measured after 7 days by MTT assay; assay type: functional, organism-based; conditions: Human immunodeficiency virus 1, ERS104pre, 168 h
[14] = system: Human immunodeficiency virus 1; experiment: Antiviral activity against multidrug-resistant HIV1-MM infected in phytohemagglutinin-activated human PBMC cells assessed as inhibition of virus-induced cytopathic effect measured after 7 days by MTT assay; assay type: functional, organism-based; conditions: Human immunodeficiency virus 1, MM, 168 h
[15] = system: Human immunodeficiency virus 1; experiment: Ratio of EC50 for antiviral activity against HIV1-G to EC50 for antiviral activity against wild type HIV1 ERS104pre; assay type: functional
[16] = system: Human immunodeficiency virus 1; experiment: Antiviral activity against darunavir-resistant HIV1 20P infected in phytohemagglutinin-activated human PBMC cells assessed as inhibition of virus-induced cytopathic effect measured after 7 days by MTT assay; assay type: functional, organism-based; conditions: Human immunodeficiency virus 1, 20P, 168 h
[17] = system: Human immunodeficiency virus 1; experiment: Ratio of EC50 for antiviral activity against HIV1-B to EC50 for antiviral activity against wild type HIV1 ERS104pre; assay type: functional
[18] = target: T1, Human immunodeficiency virus type 1 protease; experiment: Inhibition of recombinant HIV1 Protease
[19] = system: Human immunodeficiency virus 1; experiment: Antiviral activity against HIV1 LAI infected in human MT2 cells assessed as inhibition of virus-induced cytopathic effect by MTT assay; assay type: functional, organism-based; conditions: Human immunodeficiency virus 1, LAI
[20] = Apparent permeability in rat astrocytes/rat pericytes/monkey endothelial cells triple cell co-culture system incubated for 30 mins by spectrophotometric analysis; assay type: ADME, cell-based
[21] = system: Human immunodeficiency virus 1; experiment: Antiviral activity against HIV1 T20760 infected in human MT4 cells expressing LTR and EGFP assessed as inhibition of virus-induced cytopathic effect by fluorescence microscopic analysis; assay type: functional, organism-based; conditions: Human immunodeficiency virus 1, T20760, MT4
[22] = system: Human immunodeficiency virus 1; experiment: Antiviral activity against HIV1 T13572 infected in human MT4 cells expressing LTR and EGFP assessed as inhibition of virus-induced cytopathic effect by fluorescence microscopic analysis; assay type: functional, organism-based; conditions: Human immunodeficiency virus 1, T13572, MT4
[23] = system: Human immunodeficiency virus 1; experiment: Antiviral activity against wild type HIV1 r13205 infected in human MT4 cells expressing LTR and EGFP assessed as inhibition of virus-induced cytopathic effect by fluorescence microscopic analysis; assay type: functional, organism-based; conditions: Human immunodeficiency virus 1, r13205, MT4
[24] = system: Human immunodeficiency virus 1; experiment: Antiviral activity against HIV1 T13632 infected in human MT4 cells expressing LTR and EGFP assessed as inhibition of virus-induced cytopathic effect by fluorescence microscopic analysis; assay type: functional, organism-based; conditions: Human immunodeficiency virus 1, T13632, MT4
[25] = system: Human immunodeficiency virus 1; experiment: Antiviral activity against HIV1 T21055 infected in human MT4 cells expressing LTR and EGFP assessed as inhibition of virus-induced cytopathic effect by fluorescence microscopic analysis; assay type: functional, organism-based; conditions: Human immunodeficiency virus 1, T21055, MT4
[26] = system: Human immunodeficiency virus 1; experiment: Antiviral activity against HIV1 T21217 infected in human MT4 cells expressing LTR and EGFP assessed as inhibition of virus-induced cytopathic effect by fluorescence microscopic analysis; assay type: functional, organism-based; conditions: Human immunodeficiency virus 1, T21217, MT4
[27] = system: Human immunodeficiency virus 1; experiment: Antiviral activity against HIV1 T13436 infected in human MT4 cells expressing LTR and EGFP assessed as inhibition of virus-induced cytopathic effect by fluorescence microscopic analysis; assay type: functional, organism-based; conditions: Human immunodeficiency virus 1, T13436, MT4
[28] = system: Human immunodeficiency virus 1; experiment: Antiviral activity against HIV1 T13717 infected in human MT4 cells expressing LTR and EGFP assessed as inhibition of virus-induced cytopathic effect by fluorescence microscopic analysis; assay type: functional, organism-based; conditions: Human immunodeficiency virus 1, T13717, MT4

For COC(=O)[C@@H](NC(=O)[C@H](CC(C)C)NC(=O)[C@@H](NC(=O)CCCOc1ccc2ccc(OCCCC(=O)N[C@H](CCCCNC(=O)OCc3ccccc3)C(=O)Nc3cccn(CC(N)=O)c3=O)cc2c1)C(C)C)C(C)C, the Ki [1] was 40 nM.
In the case of O=C1C[C@@H](NC(=O)[C@H](OCc2cccc(Br)c2)[C@H](O)[C@@H](O)[C@@H](OCc2cccc(Br)c2)C(=O)N[C@H]2c3ccccc3C[C@H]2O)c2ccccc21, the Ki [1] is reported as 19 nM.
COc1cccc2c1C(=O)C[C@H]2NC(=O)[C@H](OCc1cccc(Br)c1)[C@H](O)[C@@H](O)[C@@H](OCc1cccc(Br)c1)C(=O)N[C@H]1c2ccccc2C[C@H]1O showed a Ki [1] of 11 nM.
CCC(C)N(CC(=O)N(CC(N)=O)Cc1ccc(N)cc1)C(=O)CN(CCSC)C(=O)CCCCCCCCCCCCCCC(=O)N(CC(N)=O)CC(=O)N(CC(=O)O)Cc1ccccc1 (stereo not drawn) gave a Ki [1] of 801 nM.
COc1ccc(S(=O)(=O)N(CC(C)C)C[C@@H](O)[C@H](Cc2ccccc2)NC(=O)O[C@H]2CO[C@H]3C[C@@H]4OCC[C@@H]4[C@H]32)cc1 gave a Ki [1] of 1.39 nM.
O=C(Cc1cccc2ccccc12)Nc1ccccc1CN1C[C@H](O)[C@@H](O)CN(Cc2ccccc2NC(=O)Cc2cccc3ccccc23)S1(=O)=O showed a Ki [2] of 20 nM.
For COc1ccc(S(=O)(=O)N(CC(C)C)C[C@@H](O)[C@H](Cc2ccccc2)NC(=O)O[C@@H]2CO[C@@H]3O[C@H]4OCC[C@H]4[C@@H]32)cc1, the EC50 [3] was 530 nM, the “Ratio EC50” value [4] was 2 and the “Ratio EC50” value [5] was 1. The EC50 [6] was greater than 1000 nM, the EC50 [7] was 656 nM and the “Ratio EC50” value [8] was 2. The EC50 [9] was 514 nM, the EC50 [10] was 612 nM and the “Ratio EC50” value [11] was greater than 3. The EC50 [12] was greater than 1000 nM, the EC50 [13] was 347 nM and the EC50 [14] was 787 nM. For the same compound, the “Ratio EC50” value [15] was 2, the EC50 [16] was greater than 1000 nM and the “Ratio EC50” value [17] was 2.
CC(C)C[C@H](NC(=O)[C@@H](NC(=O)CCCCCCCCCCCCCCC(=O)N[C@@H](CC(N)=O)C(=O)N[C@@H](Cc1ccccc1)C(=O)O)[C@@H](C)O)C(=O)NCCc1ccc(N)cc1 showed an IC50 [18] of 650 nM.
Work on COc1ccc(S(=O)(=O)N(CC(C)C)C[C@@H](O)[C@@H]2Cc3ccc(cc3)OC/C=C/CCc3c(O)cccc3C(=O)N2)cc1 yielded an IC50 [19] of 210 nM and a Ki [1] of 0.2 nM.
Cc1c(O)cccc1C(=O)N[C@@H](CSc1ccccc1)[C@H](O)CN1C[C@H]2CCCC[C@H]2C[C@H]1C(=O)NC(C)(C)C showed an EC50 [9] of 250 nM.
Compound CC(C)C[C@H](NC(=O)[C@@H](NC(=O)CCCCCCCCCCCCCCC(=O)N[C@@H](CC(N)=O)C(=O)N[C@@H](Cc1ccccc1)C(=O)O)[C@@H](C)O)C(=O)NCCc1ccccc1 (I: Asn-Phe-OH / II: Thr-Leu-NHPhenethyl; linker I:N-II:N via C16 diacid) has an IC50 [18] of 5800 nM.
Compound CCC(C)[C@H](NC(=O)[C@H](CCSC)NC(=O)CCCCCCCCCCCCCCC(=O)N[C@@H](CC(N)=O)C(=O)N[C@@H](Cc1ccccc1)C(=O)O)C(=O)N[C@@H](Cc1ccc(N)cc1)C(N)=O (stereo partly drawn) ({Phe-Asn-C16 diacid}-Met-[Ile(3ξ)]-[Phe(4-NH2)]-NH2) has a Ki [1] of 85 nM.
Cn1c(=O)c2c(ncn2C)n(C)c1=O [CAFFEINE] showed a Papp at 0.5 h [20] of 100 ×10⁻⁶ cm/s.
Work on Cc1cccc(C)c1OCC(=O)N[C@@H](Cc1ccccc1)[C@@H](O)C[C@H](Cc1ccccc1)NC(=O)[C@H](C(C)C)N1CCCNC1=O [LOPINAVIR] yielded an EC50 [21] of 112 nM, an EC50 [22] of 511 nM and an EC50 [6] greater than 1000 nM. The EC50 [7] was greater than 160 nM, the EC50 [23] was 28 nM and the EC50 [9] was greater than 436 nM. It also gave an EC50 [10] greater than 300 nM, an EC50 [24] of 1600 nM and an EC50 [25] of 426 nM. It also gave an EC50 [12] greater than 700 nM, an EC50 [13] of 7 nM and an EC50 [26] of 198 nM. The EC50 [16] was greater than 1000 nM, the EC50 [27] was 263 nM and the EC50 [28] was 1900 nM.
